# In patent publication EP0426574A1, “Thiazole derivatives and antiulcer agents containing the same” (TERUMO KABUSHIKI KAISHA, priority 1989, dated 1991):
# Counter-ions that a name gives are not always drawn.
# Test system: ethanol hydrochloric acid ulcer
# Experiment: Inhibitory activity against ethanol hydrochloric acid ulcer
# Assay type: in vivo
# Conditions: SD male rats fasted 24 hours; 30mg/kg orally, one hour before 150 mM hydrochloric acid in 60% ethanol; ulcer index = total lesion length, one hour later
# Description: To SD male rats (weighing 150-250 g) fasted for 24 hours was administered orally a thiazole derivative of the invention. One hour later, a hydrochloric acid solution in ethanol (containing 150 mM hydrochloric acid in 60% ethanol) was orally given in a volume of 0.5 ml/100 g bodyweight.
# One hour later, the animals were sacrificed with ether. The stomach was excised and, after formalin treatment, measured for the length (mm) of lesions developed in glandular portions of the stomach. Total length of the lesions per animal was taken as ulcer index.
# Percent inhibition of ulceration as referred to in the table is a value obtained by reducing from 1 the ulcer index for the rat with a thiazole derivative of the invention orally given divided by the ulcer index for the orally non-administered rat and multiplying the value by 100. The calculation is conducted by the formula shown below. [formula]
row,SMILES,Percent inhibition of ulceration (%)
1,"CN(C)c1ccc(Nc2nc3cccnc3s2)cc1 [Example 4, 2-(4-dimethylaminophenyl)amino[5,4-b]pyridothiazole hydrochloride]",45.5%
2,"c1ccc(CNc2nc3cccnc3s2)cc1 [Example 3, 2-benzylamino[5,4-b]pyridothiazole hydrochloride]",87.2%
3,"c1ccc(Nc2nc3cccnc3s2)cc1 [Example 2, 2-phenylamino[5,4-b]pyridothiazole hydrochloride]",88.8%
4,"COc1ccc(Nc2nc3cccnc3s2)cc1 [Example 5, 2-(4-methoxyphenyl)-amino[5,4-b]pyridothiazole hydrochloride]",51.2%
5,"CNc1nc2cccnc2s1 [Example 1, 2-methylamino[5,4-b]pyridothiazole hydrochloride]",100.0%
